Data: publication PMC10037152 (Plant Biotechnology Journal, 2023)

Assays:
[1] = biological target: 3CL^pro of SARS-CoV-2 (Severe acute respiratory syndrome coronavirus 2, UniProt P0DTD1); assay: Inhibition activity against 3CLpro by fluorescence resonance energy transfer; format: biochemical; settings: read-out: IC50 against 3CL^pro; n = 3
[2] = biological target: PL^pro of SARS-CoV-2 (Severe acute respiratory syndrome coronavirus 2, UniProt P0DTD1); assay: Inhibition activity against PLpro by fluorescence resonance energy transfer; format: biochemical; settings: read-out: IC50 against PL^pro; n = 3

CC1(C)CC[C@]2(C(=O)O)CC[C@]3(C)C(=CC[C@@H]4[C@@]5(C)CC[C@H](O[C@@H]6O[C@H](CO)[C@@H](O)[C@H](O)[C@H]6O)C(C)(C)C5CC[C@]43C)[C@H]2C1 (some centres unmarked) [Compound 34, oleanolic acid‐3‐O‐glucoside]
IC50 [1]: 5.95 µM | IC50 [2]: 7.57 µM
